Source: article PMC8003314, “Design and Synthesis of Ranitidine Analogs as Multi-Target Directed Ligands for the Treatment of Alzheimer’s Disease” (International Journal of Molecular Sciences, 2021)
pIC50: −log10 of the molar value.

What was measured:
Aβ40 = molecular target: T1, Aβ40 (Homo sapiens, UniProt P05067); test: ThT fluorescence assay of Aβ monomer aggregation; assay type: biochemical; conditions: 40 μM Aβ40 monomer, mean ± SEM, n = 3–5, N.E. = not significantly different from control samples; for Plateau Reduction (% Inhibition) / Lag Time Extension (Fold Increase): 100 µM compound; for Plateau Reduction (% Inhibition) / inhibition at 100 µM: 40 mM Tris-HCl pH 8.0, 25 °C; for Lag Time Extension (Fold Increase): T2/T1 relative to control; for inhibition at 100 µM: pH 8, 100 µM compound, read-out: Plateau Reduction (% Inhibition)
T1 construct: purchased AnaSpec; host or cells: synthetic peptide
T1 sequence (P05067 672-711 limits assumed): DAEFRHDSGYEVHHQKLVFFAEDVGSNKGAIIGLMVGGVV
Text: Synthetic Aβ40 was used in this study because it is the predominant isoform found in amyloid plaques isolated from AD brain [12]. Thioflavin T (ThT), a fluorescent compound that binds specifically to amyloid β-sheet structures to yield a shifted, enhanced florescence, was used to monitor the appearance of aggregates. […] The inhibitory effect of compounds on Aβ aggregation was evidenced as a reduction in the equilibrium plateau and/or an increase in the lag time. The plateau reduction (Figure 2A), which indicates inhibition that reduces the extent of Aβ aggregation, was defined as the percentage decrease of the plateau ThT fluorescence in the presence of inhibitor, P2, compared to the plateau ThT fluorescence in the absence of inhibitor, P1.
Lyophilized Aβ peptide was reconstituted in 50 mM NaOH at a concentration of 2 mg/mL and purified via size-exclusion chromatography (SEC) on a Superdex 75 HR 10/300 column (Cytiva, Marlborough, MA) using a running buffer of 40 mM Tris-HCl (pH 8.0). Bovine serum albumin (BSA) (2 mg/mL) was employed as a pretreatment to reduce nonspecific Aβ interaction with the dextran matrix of the column. […] The concentrations of eluted Aβ monomer fractions were determined with a calculated extinction coefficient of 1450 M^−1 cm^−1 at 276 nm. Purified Aβ monomer samples were used fresh or stored at 4 ℃ for up to 4 days.
All compounds were dissolved in DMSO at 5 mM and stored at −20 °C. […] DMSO (2% v/v) was added to control reactions run in parallel.
SEC-purified Aβ monomer was diluted to 40 μM in 40 mM Tris-HCl (pH 8.0) and agitated (vortex, 800 rpm, 25 °C) without (control) or with 100 µM ranitidine analogs. Periodically, a 20-μL aliquot was removed and combined with 140 μL of 10 μM ThT. Fluorescence (excitation = 450 nm, emission = 470–500 nm) was evaluated using a Perkin-Elmer LS-45 luminescence spectrometer (Waltham, MA, USA). Fluorescence values were calculated as the integrated area under the emission curve with baseline (ThT alone) subtraction and plotted vs. aggregation time. Each compound was evaluated using at least three independent experiments.
Figure 2 Assessment of the inhibition of Aβ monomer aggregation. Monomer aggregation assays were conducted in the absence (solid line, control) and presence (dotted line, experimental) of the ranitidine analogs, and aggregate formation was monitored as an increase in the ThT fluorescence. (A) Inhibition that decreases the quantity of aggregates formed at equilibrium is reported as the plateau reduction, the percentage decrease of the plateau ThT fluorescence in the presence of inhibitor, P2, compared to the plateau for the control, P1. (B) Inhibition that extends the time to aggregate formation is reported as the lag time extension. It is evidenced as an increase in the experimental lag time, T2, relative to the lag time for the control, T1, and evaluated as a fold increase relative to the control, T2/T1.

AChE = test system: AChE; set-up: method as in PMID 27769620; conditions: previous study; cited from earlier work
electric eel AChE = molecular target: T2, electric eel AChE (Electrophorus electricus, UniProt O42275); test: AChE inhibition assay (modified Ellman method); assay type: biochemical; conditions: 0.1 M sodium phosphate pH 8.0, 37 °C, 200 µM acetylthiocholine
T2 construct: purchased Sigma (Sigma-Aldrich, St. Louis, MO, USA)
T2 sequence (O42275 24-633): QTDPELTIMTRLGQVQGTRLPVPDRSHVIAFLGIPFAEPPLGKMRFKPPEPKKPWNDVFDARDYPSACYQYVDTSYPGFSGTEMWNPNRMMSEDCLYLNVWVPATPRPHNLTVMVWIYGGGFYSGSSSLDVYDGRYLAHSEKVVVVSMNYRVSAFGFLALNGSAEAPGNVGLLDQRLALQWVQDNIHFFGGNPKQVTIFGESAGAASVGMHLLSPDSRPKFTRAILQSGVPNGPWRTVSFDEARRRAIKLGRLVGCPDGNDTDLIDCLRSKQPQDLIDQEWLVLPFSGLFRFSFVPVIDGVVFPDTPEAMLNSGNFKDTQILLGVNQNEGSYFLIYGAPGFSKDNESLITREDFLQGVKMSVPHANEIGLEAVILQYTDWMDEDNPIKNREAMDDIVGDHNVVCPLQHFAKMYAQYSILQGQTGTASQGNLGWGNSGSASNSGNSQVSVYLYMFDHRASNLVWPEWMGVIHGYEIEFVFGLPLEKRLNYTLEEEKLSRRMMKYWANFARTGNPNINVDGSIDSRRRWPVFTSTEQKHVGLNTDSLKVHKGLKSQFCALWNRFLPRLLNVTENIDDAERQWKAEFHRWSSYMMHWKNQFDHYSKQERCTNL
Description: Aβ40 was purchased from AnaSpec (AnaSpec, Fremont, CA, USA) and stored in lyophilized form at −20 °C. Thioflavin T (ThT) and electric eel AChE were obtained from Sigma (Sigma-Aldrich, St. Louis, MO, USA). Bovine serum albumin (BSA) and dimethyl sulfoxide (DMSO) were purchased from EMD Biosciences (EMD Biosciences, San Diego, CA, USA). Tris-HCl (pH 8.0) was prepared using Tris base, purchased from Promega (Promega, Madison, WI, USA) and Tris hydrochloride, purchased from EMD (EMD, Burlington, MA, USA).
The AChE inhibition assay was modified based on the method of Ellman et al. in a 24-well plate format at 37 °C. Assays were performed in 0.1 M sodium phosphate (pH 8.0), containing 200 µM acetylthiocholine, 100 µM dithiobisnitrobenzoic acid, and 0.005 units of AChE in a final volume of 3000 µL. The reaction was initiated by the addition of acetylthiocholine, and the formation of a product was monitored by measuring absorbance at 412 nm. The IC50 values were determined by nonlinear regression analysis of the concentration–response curves generated. Each compound was evaluated using at least three independent experiments.

Row | Compound | Plateau Reduction (% Inhibition) (Aβ40) | Lag Time Extension (Fold Increase) (Aβ40) | inhibition at 100 µM (Aβ40) [%] | pIC50 (AChE) | IC50 (electric eel AChE) [µM]
1 | 2-(2-(Methylthio)ethyl)-5-nitro-1H-benzo[de]isoquinoline-1,3(2H)-dione [Compound 7] | abrogated and N.E. | N.E. |  |  | 
2 | CC1CC(=O)N(CCSCc2ccc(CN(C)C)o2)C1=O (centres unmarked) [Compound 1] | N.E. | 2.8 ± 0.6 fold |  |  | 
3 | CN(C)Cc1ccc(CSCCN2C(=O)c3ccccc3C2=O)o1 [Compound 2] | N.E. | lost and N.E. |  |  | 
4 | CN(C)Cc1ccc(CSCCN2C(=O)c3cccc4cccc(c34)C2=O)o1 [Compound 3] |  | lost and N.E. | 60.9 |  | 
5 | CN(C)Cc1ccc(CSCCN2C(=O)c3ccc([N+](=O)[O-])cc3C2=O)o1 [Compound 5] |  | 2.0 ± 0.6 fold | 39.1 |  | 
6 | CN(C)Cc1ccc(CSCCN2C(=O)c3cccc4cc([N+](=O)[O-])cc(c34)C2=O)o1 [Compound 6] |  | N.E. | 71.8 | 6.82 | 
7 | CN(C)Cc1ccc(CSCCN2C(=O)c3cccc4c(Cl)ccc(c34)C2=O)o1 [Compound 8, 6-Chloro-2-(2-(((5-((dimethylamino)methyl)furan-2-yl)methyl)thio)ethyl)-1H-benzo [de]isoquinoline-1,3(2H)-dione] |  | N.E. | 65.8 |  | 1.23
8 | CN(C)Cc1nc(CSCCN2C(=O)c3cccc4cccc(c34)C2=O)cs1 [Compound 9, 2-(2-((2-((Dimethylamino)methyl)thiazol-4-yl)methylthio)ethyl)-1H-benzo[de]iso quinoline-1,3(2H)-dione] | 54.2% ± 5.1% | N.E. | 61.4 |  | 2.02
9 | CN(C)Cc1nc(CSCCN2C(=O)c3cccc4cc([N+](=O)[O-])cc(c34)C2=O)cs1 [Compound 10, 2-(2-(((2-((Dimethylamino)methyl)thiazol-4-yl)methyl)thio)ethyl)-5-nitro-1H-benzo[de]isoquinoline-1,3(2H)-dione] | 61.4% ± 19.7% | N.E. | 54.2 |  | 0.52
10 | O=C1c2cccc3cc([N+](=O)[O-])cc(c23)C(=O)N1CCc1ccco1 [Compound 11, 2-(2-(furan-2-yl)ethyl)-5-nitro-1H-benzo[de]isoquinoline-1,3(2H)-dione] |  | 1.76 ± 0.61 fold | 60.3 |  | 
11 | CN(C)Cc1ccc(CCN2C(=O)c3cccc4cc([N+](=O)[O-])cc(c34)C2=O)o1 [Compound 12, 2-(2-(5-((Dimethylamino)methyl)furan-2-yl)ethyl)-5-nitro-1H-benzo[de]isoquino line-1,3(2H)-dione] |  | 2.25 ± 0.25 fold | 65.6 |  | 0.36
12 | CN(C)Cc1ccc(C[S+]([O-])CCN2C(=O)c3cccc4cc([N+](=O)[O-])cc(c34)C2=O)o1 (centres unmarked) [Compound 13, 2-(2-(((5-((Dimethylamino)methyl)furan-2-yl)methyl)sulfinyl)ethyl)-5-nitro-1H-benzo[de]isoquinoline-1,3(2H)-dione] |  | N.E. | 26.8 |  | 
13 | CN(C)Cc1ccc(C[S+]([O-])CCN2C(=O)c3cccc4cccc(c34)C2=O)o1 (centres unmarked) [Compound 14, 2-(2-(((5-((Dimethylamino)methyl)furan-2-yl)methyl)sulfinyl)ethyl)-1H-benzo[de] isoquinoline-1,3(2H)-dione] |  | N.E. | 20.1 |  | 
14 | C[N+](C)([O-])Cc1ccc(CS(=O)(=O)CCN2C(=O)c3cccc4cc([N+](=O)[O-])cc(c34)C2=O)o1 [Compound 15, N,N-Dimethyl-1-(5-(((2-(5-nitro-1,3-dioxo-1H-benzo[de]isoquinolin-2(3H)-yl)ethyl)sulfonyl)methyl)furan-2-yl)methanamine oxide] |  | N.E. | 20.4 |  | 
